Laboratory results reported in patent US10519504B2, “Methods for treatment of oncological disorders using epimetabolic shifters, multidimensional intracellular molecules, or environmental influencers” (Berg LLC, priority 2009, dated 2019).
Like-named read-outs stand apart in the source and are kept apart here.

Experiments:
[1] = test system: HepG2 (liver cancer) cells; assay: Real-time PCR Diabetes Array; type: cell-based; settings: 100 μM Q10
Protocol: The treatment was initiated on 1×10^5 cells per well, following the procedure utilized in the PaCa2 cells (above, Examples 9-11). However, the total amount of RNA that was extracted from these samples was lower than expected. Reverse transcription is normally done using 1 μg of total RNA (determined by measurement at 260 nm). The maximum volume that can be used per reverse transcription is 8 μl.

various cell types = assay: Induction of early apoptosis in oncogenic and normal cell types (Bcl-2, caspase, annexin V); type: cell-based
Protocol: CoQ10 treatment of cells was carried out as described in detail below in the Materials and Methods. Induction of apoptosis was assessed in the treated cells by monitoring indicators of early apoptosis (e.g., Bcl-2 expression, caspase activation and by using annexin V assays) as described below. From these studies, the minimal CoQ10 dosage, e.g., concentration of CoQ10 and time of treatment, required to induce apoptosis in the panel of cell lines was determined.
Cells were cultured in T-75 flasks with relevant medium supplemented with 10% Fetal Bovine Serum (FBS), 1% PSA (penicillin, streptomycin, amphotericin B) (Invitrogen and Cellgro) in a 37° C. incubator with 5% CO2 levels until 70-80% confluence was reached. To harvest cells for treatment, flasks were primed with 1 mL Trypsin, aspirated, trypsinized with an additional 3 mL, and incubated at 37° C. for 3-5 minutes. Cells were then neutralized with an equal volume of media and the subsequent solution was centrifuged at […] for 8 minutes. The supernatant was aspirated and the cells were resuspended with 8.5 ml of media. A mixture of 500 ul of the resuspension and 9.5 ml of […] was read twice by a coulter counter and the appropriate number of cells to be seeded into each dish was determined. Control and concentration ranging from 0-200 μM groups were examined in triplicate. From a 500 μM CoQ-10 stock solution, serial dilutions were performed to achieve desired experimental concentration in appropriate dishes. Dishes were incubated in a 37° C. incubator with 5% CO2 levels for 0-72 hours depending on cell type and experimental protocol.
The volume of sample to load per well was determined using the raw mean concentration of protein obtained from the BCA protein assay. Approximately 30-60 μg of protein were loaded for each treatment time point. Proteins were run in triplicate on 12% Tris-HCl ready gels (Bio-Rad) or hand cast gels in 1× running buffer at 85 and 100 volts. Proteins were then transferred onto nitrocellulose paper for an hour at 100 volts, and blocked for another hour in a 5% milk solution. Membranes were placed in primary antibody (1 uL Ab:1000 uL TBST) (Cell Signaling) overnight at […] The following day, membranes were washed three times for ten minutes each with Tris-Buffered Saline Tween-20 (TBST), and secondary antibody (anti-rabbit; 1 uL Ab: 1000 uL TBST) was applied for an hour at […] Membranes were washed again three times for ten minutes with TBST and chemoluminescence using Pico or Femto substrate was completed (Pierce). Membranes were then developed at time intervals that produced the best visual results. After developing, membranes were kept in TBST at […] until Actin levels could be measured.
Cells were washed twice in PBS10× and resuspended in Binding Buffer (0.1 M HEPES, pH 7.4; 1.4 M NaCl; 25 mM CaCl2). Samples of 100 μl were added to a culture tube with 5 μl of annexin-PE dye or […]. The cells were mixed and incubated without light at room temperature for 15 minutes. After which, 400 μl of 1× Binding Buffer was added to each sample and they were subjected to analysis by flow cytometry.

[2] = test system: induced pancreatic cancer; settings: for survival after 28 days: intravenous
Hif1 alpha = assay: Western blot, Hif1 alpha levels; type: cell-based, human
Protocol: The Actin blots were stripped by incubating for 30 minutes with methanol, followed by two 10 minute washes with TBS-T, then 30 minutes of incubation with Stripping buffer at 50 deg C., and followed by two washes with 100 ml or more of TBS-T for 30′ each. The blots were scanned in laser scanner to check for complete stripping. The blots were activated with methanol for 5 seconds, washed with water for 5 minutes, and TBST for 15 minutes. The blots were blocked for 1 hour with 5% blocking reagent in TBS-T at room temperature and then washed 3 times with TBS-T (1X−15′; 2X5′ each) and probed with the primary antibody for Hif 1 alpha, Caspase 3 or PDHB in 5% BSA (at 1:200 by incubation overnight at 4 deg C. with gentle shaking. The primary antibody for Hif 1 alpha (Abcam ab2185; antirabbit) was at 1:500 dilution in 5% BSA. The primary antibody for Caspase 3 (Santacruz sc7272; antirabbit) was at 1:200 dilution in 5% BSA. The primary antibody for Pyruvate Dehydrogenase beta (PDHB) (Novus Biologicals H00005162-M03; antimouse) was at 1:500 dilution in 5% BSA. After incubation with primary antibodies, the membranes were washed 3 times with TBS-T (1X−15′; 2X5′ each) and probed with the secondary antibody (PDHB antimouse; Hif 1a and Caspase 3 antirabbit; 1:10,000 dilution) for 1 h at room temperature. […]

COC1=C(OC)C(=O)C(C/C=C(\C)CC/C=C(\C)CC/C=C(\C)CC/C=C(\C)CC/C=C(\C)CC/C=C(\C)CC/C=C(\C)CC/C=C(\C)CC/C=C(\C)CCC=C(C)C)=C(C)C1=O [Q10, Coenzyme Q10]
PPARGC1A regulation ([1]; HepG2, 48 hours): normalized or were slightly upregulated | PRKAA1 regulation ([1]; HepG2, 48 hours): normalized or were slightly upregulated | genes regulated in the Diabetes Arrays ([1]; HepG2 cells, genes: PPARGC1A, PRKAA1, SNAP25): List of genes regulated in the Diabetes Arrays when HepG2 cells | Indication of Early apoptosis (Bcl-2, annexin V, or caspase activation) (various cell types; BONE: Ewing's sarcoma (NCI), wrapped cell reads Extremely strong): Extremely | Indication of Early apoptosis (Bcl-2, annexin V, or caspase activation) (various cell types; BREAST: Mammary fiboblasts: 184A1 and 184B5) (Lawrence Berkeley)): None | Indication of Early apoptosis (Bcl-2, annexin V, or caspase activation) (various cell types; SKIN: Melanoma (Skmel 2)): Very Strong | Indication of Early apoptosis (Bcl-2, annexin V, or caspase activation) (various cell types; SKIN: Melanoma (Skmel 28)): Strong | Indication of Early apoptosis (Bcl-2, annexin V, or caspase activation) (various cell types; SKIN: SCC, Squamous cell carcinoma): Very Strong | dose dependent response of cancer vs control cell lines (various cell types; keratinocytes, melanocytes vs SK-MEL-28, SK-MEL-2, SCC, PaCa2, HEP-G2, various levels): induction of apoptosis and cell death in the cancer cells only | efficacy of treatment by cell type (various cell types; oncogenic cell lines of differing aggressiveness): greater in cell types that exhibited increased oncogenicity and/or greater metastatic potential | dose response of survival ([2]; 5 to 50 mg/kg): those animals receiving higher doses had a higher survival rate | survival after 28 days ([2]; Group G: 50 mg/kg): all of the animals receiving the highest dose of coenzyme Q10 (Group G) remained alive at 28 days | survival after 28 days ([2]; Groups D, E, F: 5, 10, 25 mg/kg): most of the animals in Groups D, E and F remained alive | Hif1 alpha protein levels (Hif1 alpha; mitochondrial preparations of cancer cells): decreased Hif1 alpha protein levels | Hif1a lower band (Hif1 alpha; whole cell lysates of normal cells): showed a decrease as well
